In US10919916B2, “Boron-containing small molecules” (Bill & Melinda Gates Foundation, priority 2016, dated 2021) one finds MIC and EC50 data, which are given here for 14 compounds.

Holding throughout (assay type): cell-based
Experiment [1] has as its system Streptococcus pneumoniae (ATCC 49619). Briefly: Antibacterial MIC assay (microbroth dilution, CLSI). The procedure, abridged: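 CLSI broth microdilution: 2-fold compound dilutions in cation-adjusted Mueller-Hinton broth supplemented with 3% lysed horse blood for S. pneumoniae, inoculum 5×10^5 CFU/mL from a 0.5 McFarland direct colony suspension, with growth control.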
(In general: In broth dilution the organism is exposed to a series of concentrations in liquid medium.)

Experiment [2] concerns Wolbachia pipientis in C6/36 cell line. As to the kind of experiment: Anti-Wolbachia high-content assay. The settings on record: read-out: EC50 Wolbachia pipientis in C6/36 cell line. On the procedure: After 15 minutes, all media was removed from each well and fresh media (no stain) was added. Imaging of each well was accomplished using a Perkin Elmer Operetta high-content imaging system. Five fields per well were imaged using a confocal 60× objective with the Fluorescein filter (excitation filter: 460-490 nm; emission filter: 500-550 nm). Images were analyzed using the Perkin Elmer Harmony software to score each intact cell on the basis of texture complexity of the cytoplasm. Full details can be found in: […]. et al, J. Biomol.

The subject of experiment [3] is Staphylococcus aureus, MRSA (ATCC 33591). As to the kind of experiment: Antibacterial MIC assay (microbroth dilution, CLSI). The following applies: read-out: MIC Staphylococcus aureus, MRSA (ATCC 33591). The procedure, abridged: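 Microbroth dilution per CLSI M07-A10/M100-S25 in cation-adjusted Mueller-Hinton broth, with 3% lysed horse blood added for S. pneumoniae. Inoculum from a 0.5 McFarland direct colony suspension, diluted to 5×10^5 CFU/mL in the well. Compounds were 2-fold serially diluted; MIC read against a growth control.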

[4] abbreviates: ATCC49619, microbroth dilution, 3% lysed horse blood, 35° C. for 16-20 hours, read-out: MIC Streptococcus pneumoniae (ATCC 49619).
The mark [5] stands for this setting: C6/36 (wAlbB) cells, 7 days at 26° C., 50% reduction of Wolbachia.
The mark [6] stands for this setting: microbroth dilution, cation-adjusted Mueller-Hinton broth, 35° C. for 16-20 hours.

Converted amounts (≈) assume the structure as drawn. Read-outs that look alike come from different tables or passages of the source. A value given as a limit tells only on which side of the number the result lay.

What is called MIC is the smallest concentration in the dilution series that meets the test's criterion for growth inhibition.

With `C=C[C@]1(C)C[C@@H](OC(=O)COc2cc(CNC(=O)OC(C)(C)C)c3c(c2)B(O)OC3)[C@]2(C)[C@H](C)CC[C@]3(C[C@H](O)C(=O)[C@H]32)[C@@H](C)[C@@H]1O` [Compound 41, (2S,3aR,4R,5R,7S,8S,9R,9aS,12R)-2,8-dihydroxy-4,7,9,12-tetramethyl-3-oxo-7-vinyldecahydro-4,9a-propanocyclopenta[8]annulen-5-yl 2-((4-(((tert-butoxycarbonyl)amino)methyl)-1-hydroxy-1,3-dihydrobenzo[c][1,2]oxaborol-6-yl)oxy)acetate], the MIC in experiment [1] (setting [4]) and in experiment [3] (setting [6]) was 0.5 to 2 µg/mL (≈ 0.763 to 3.05 µM) throughout. The EC50 in experiment [2] (setting [5]) was 625 nM.

For the compound `C=C[C@]1(C)C[C@@H](OC(=O)COc2ccc3c(c2)B(O)N(C)N=C3)[C@]2(C)[C@H](C)CC[C@]3(C[C@H](F)C(=O)[C@H]32)[C@@H](C)[C@@H]1O` [Compound 84, (2S,3aR,4R,5R,7S,8S,9R,9aS,12R)-2-fluoro-8-hydroxy-4,7,9,12-tetramethyl-3-oxo-7-vinyldecahydro-4,9a-propanocyclopenta[8]annulen-5-yl 2-((1-hydroxy-2-methyl-1,2-dihydrobenzo[d][1,2,3]diazaborinin-7-yl)oxy)acetate], the minimum inhibitory concentration (MIC) in experiment [1] (setting [4]) and in experiment [3] (setting [6]) was 0.5 to 2 µg/mL (≈ 0.902 to 3.61 µM) throughout. Besides, the EC50 in experiment [2] (setting [5]) came out at 78 nM.

As to `C=C[C@]1(C)C[C@@H](OC(=O)COc2ccc3c(c2)B(O)OC3CNC(C)=O)[C@]2(C)[C@H](C)CC[C@]3(CCC(=O)[C@H]32)[C@@H](C)[C@@H]1O` (stereo partly drawn) [Compound 22, (3aR,4R,5R,7S,8S,9R,9aS,12R)-8-hydroxy-4,7,9,12-tetramethyl-3-oxo-7-vinyldecahydro-4,9a-propanocyclopenta[8]annulen-5-yl 2-((3-(acetamidomethyl)-1-hydroxy-1,3-dihydrobenzo[c][1,2]oxaborol-6-yl)oxy)acetate], the MIC in experiment [1] (setting [4]) and in experiment [3] (setting [6]) was 0.5 to 2 µg/mL (≈ 0.86 to 3.44 µM) in each case. Besides, the EC50 in experiment [2] (setting [5]) was greater than 1000 nM.

`C=C[C@]1(C)C[C@@H](OC(=O)CNc2ccc3c(c2)B(O)OC32CCNCC2)[C@]2(C)[C@H](C)CC[C@]3(CCC(=O)[C@H]32)[C@@H](C)[C@@H]1O` [Compound 53, (3aR,4R,5R,7S,8S,9R,9aS,12R)-8-hydroxy-4,7,9,12-tetramethyl-3-oxo-7-vinyldecahydro-4,9a-propanocyclopenta[8]annulen-5-yl (1-hydroxy-1H-spiro[benzo[c][1,2]oxaborole-3,4′-piperidin]-6-yl)glycinate]: the MIC in experiment [1] (setting [4]) is 0.5 to 2 µg/mL (≈ 0.864 to 3.46 µM); in experiment [3] (setting [6]), 4 to 32 µg/mL (≈ 6.91 to 55.3 µM). For the same compound, the EC50 in experiment [2] (setting [5]) was greater than 1000 nM.

As to `C=C[C@]1(C)C[C@@H](OC(=O)COc2cc(CN(C)C)c3c(c2)B(O)OC3)[C@]2(C)[C@H](C)CC[C@]3(CCC(=O)[C@H]32)[C@@H](C)[C@@H]1O.Cl` [Compound 13, (3aR,4R,5R,7S,8S,9R,9aS,12R)-8-hydroxy-4,7,9,12-tetramethyl-3-oxo-7-vinyldecahydro-4,9a-propanocyclopenta[8]annulen-5-yl 2-((4-((dimethylamino)methyl)-1-hydroxy-1,3-dihydrobenzo[c][1,2]oxaborol-6-yl)oxy)acetate Hydrochloride], the minimum inhibitory concentration (MIC) in experiment [1] (setting [4]) is 0.5 to 2 µg/mL; in experiment [3] (setting [6]) it was less than 0.25 µg/mL. The EC50 in experiment [2] (setting [5]) is 81 nM.

For the compound `C=C[C@]1(C)C[C@@H](OC(=O)COc2ccc3c(c2F)B(O)OC3)[C@]2(C)[C@H](C)CC[C@]3(C[C@H](F)C(=O)[C@H]32)[C@@H](C)[C@@H]1O` [Compound 39, (2S,3aR,4R,5R,7S,8S,9R,9aS,12R)-2-fluoro-8-hydroxy-4,7,9,12-tetramethyl-3-oxo-7-vinyldecahydro-4,9a-propanocyclopenta[8]annulen-5-yl 2-((7-fluoro-1-hydroxy-1,3-dihydrobenzo[c][1,2]oxaborol-6-yl)oxy)acetate], the values for the MIC in experiment [1] (setting [4]) and in experiment [3] (setting [6]) were 0.5 to 2 µg/mL (≈ 0.915 to 3.66 µM) and less than 0.25 µg/mL, respectively. Further, the EC50 in experiment [2] (setting [5]) is 84 nM.

Turning to `C=C[C@]1(C)C[C@@H](OC(=O)COc2ccc3c(c2)B(O)OC3CC(=O)OC)[C@]2(C)[C@H](C)CC[C@]3(CCC(=O)[C@H]32)[C@@H](C)[C@@H]1O` (stereo partly drawn) [Compound 26, (3aR,4R,5R,7S,8S,9R,9aS,12R)-8-hydroxy-4,7,9,12-tetramethyl-3-oxo-7-vinyldecahydro-4,9a-propanocyclopenta[8]annulen-5-yl 2-((1-hydroxy-3-(2-methoxy-2-oxoethyl)-1,3-dihydrobenzo[c][1,2]oxaborol-6-yl)oxy)acetate], the minimum inhibitory concentration (MIC) in experiment [1] (setting [4]) is 0.5 to 2 µg/mL (≈ 0.858 to 3.43 µM); in experiment [3] (setting [6]) it was less than 0.25 µg/mL. In addition, the EC50 in experiment [2] (setting [5]) is greater than 1000 nM.

With `C=C[C@]1(C)C[C@@H](OC(=O)COc2ccc3c(c2F)B(O)N(S(C)(=O)=O)N=C3)[C@]2(C)[C@H](C)CC[C@]3(C[C@H](O)C(=O)[C@H]32)[C@@H](C)[C@@H]1O` [Compound 77, (2S,3aR,4R,5R,7S,8S,9R,9aS,12R)-2,8-dihydroxy-4,7,9,12-tetramethyl-3-oxo-7-vinyldecahydro-4,9a-propanocyclopenta[8]annulen-5-yl 2-((8-fluoro-1-hydroxy-2-(methylsulfonyl)-1,2-dihydrobenzo[d][1,2,3]diazaborinin-7-yl)oxy)acetate], the figures for the MIC in experiment [1] (setting [4]) and in experiment [3] (setting [6]) were 0.5 to 2 µg/mL (≈ 0.788 to 3.15 µM) and 4 to 32 µg/mL (≈ 6.3 to 50.4 µM), respectively. Further, the EC50 in experiment [2] (setting [5]) is greater than 1000 nM.

Consider `C=C[C@]1(C)C[C@@H](OC(=O)COc2ccc3c(c2F)B(O)OC3)[C@]2(C)[C@H](C)CC[C@]3(C[C@H](O)C(=O)[C@H]32)[C@@H](C)[C@@H]1O` [Compound 36, (2S,3aR,4R,5R,7S,8S,9R,9aS,12R)-2,8-dihydroxy-4,7,9,12-tetramethyl-3-oxo-7-vinyldecahydro-4,9a-propanocyclopenta[8]annulen-5-yl 2-((7-fluoro-1-hydroxy-1,3-dihydrobenzo[c][1,2]oxaborol-6-yl)oxy)acetate], for which the figures for the minimal inhibitory concentration (MIC) in experiment [1] (setting [4]) and in experiment [3] (setting [6]) were 0.5 to 2 µg/mL (≈ 0.918 to 3.67 µM) and less than 0.25 µg/mL, respectively. For the same compound, the EC50 in experiment [2] (setting [5]) came out at 193 nM.

Regarding `C=C[C@]1(C)C[C@@H](OC(=O)COc2ccc3c(c2C)B(O)N(C(=O)OC)N=C3)[C@]2(C)[C@H](C)CC[C@]3(C[C@H](F)C(=O)[C@H]32)[C@@H](C)[C@@H]1O` [Compound 95, Methyl 7-(2-(((2S,3aR,4R,5R,7S,8S,9R,9aS,12R)-2-fluoro-8-hydroxy-4,7,9,12-tetramethyl-3-oxo-7-vinyldecahydro-4,9a-propanocyclopenta[8]annulen-5-yl)oxy)-2-oxoethoxy)-1-hydroxy-8-methylbenzo[d][1,2,3]diazaborinine-2(1H)-carboxylate], the minimal inhibitory concentration (MIC) in experiment [1] (setting [4]) and in experiment [3] (setting [6]) was less than 0.25 µg/mL in each case. Also, the EC50 in experiment [2] (setting [5]) came to 46 nM.

`C=C[C@]1(C)C[C@@H](OC(=O)COc2ccc3c(c2)B(O)N(C(C)=O)N=C3)[C@]2(C)[C@H](C)CC[C@]3(C[C@H](F)C(=O)[C@H]32)[C@@H](C)[C@@H]1O` [Compound 88, (2S,3aR,4R,5R,7S,8S,9R,9aS,12R)-2-fluoro-8-hydroxy-4,7,9,12-tetramethyl-3-oxo-7-vinyldecahydro-4,9a-propanocyclopenta[8]annulen-5-yl 2-((2-acetyl-1-hydroxy-1,2-dihydrobenzo[d][1,2,3]diazaborinin-7-yl)oxy)acetate]: the minimal inhibitory concentration (MIC) in experiment [1] (setting [4]) was 0.5 to 2 µg/mL (≈ 0.858 to 3.43 µM); in experiment [3] (setting [6]) it was less than 0.25 µg/mL. Moreover, the EC50 in experiment [2] (setting [5]) is 4 nM.

Consider `C=C[C@]1(C)C[C@@H](OC(=O)COc2ccc3c(c2F)B(O)NN=C3)[C@]2(C)[C@H](C)CC[C@]3(CCC(=O)[C@H]32)[C@@H](C)[C@@H]1O` [Compound 81, (3aR,4R,5R,7S,8S,9R,9aS,12R)-8-hydroxy-4,7,9,12-tetramethyl-3-oxo-7-vinyldecahydro-4,9a-propanocyclopenta[8]annulen-5-yl 2-((8-fluoro-1-hydroxy-1,2-dihydrobenzo[d][1,2,3]diazaborinin-7-yl)oxy)acetate], for which the minimum inhibitory concentration (MIC) in experiment [1] (ATCC49619, read-out: MIC Streptococcus pneumoniae (ATCC 49619)) is less than 0.25 µg/mL; in experiment [3], less than 0.25 µg/mL. Also, the EC50 in experiment [2] (C6/36, […]) was 34 nM.

For the compound `C=C[C@]1(C)C[C@@H](OC(=O)COc2ccc3c(c2F)B(O)OC3CNC(=O)OC(C)(C)C)[C@]2(C)[C@H](C)CC[C@]3(CCC(=O)[C@H]32)[C@@H](C)[C@@H]1O` (stereo partly drawn) [Compound 28, (3aR,4R,5R,7S,8S,9R,9aS,12R)-8-hydroxy-4,7,9,12-tetramethyl-3-oxo-7-vinyldecahydro-4,9a-propanocyclopenta[8]annulen-5-yl 2-((3-(((tert-butoxycarbonyl)amino)methyl)-7-fluoro-1-hydroxy-1,3-dihydrobenzo[c][1,2]oxaborol-6-yl)oxy)acetate], the MIC in experiment [1] (setting [4]) and in experiment [3] (setting [6]) was 0.5 to 2 µg/mL (≈ 0.76 to 3.04 µM) in each case. Further, the EC50 in experiment [2] (setting [5]) is greater than 1000 nM.

As for `C=C[C@]1(C)C[C@@H](OC(=O)COc2ccc3c(c2)B(O)N(S(C)(=O)=O)N=C3)[C@]2(C)[C@H](C)CC[C@]3(C[C@H](F)C(=O)[C@H]32)[C@@H](C)[C@@H]1O` [Compound 79, (2S,3aR,4R,5R,7S,8S,9R,9aS,12R)-2-fluoro-8-hydroxy-4,7,9,12-tetramethyl-3-oxo-7-vinyldecahydro-4,9a-propanocyclopenta[8]annulen-5-yl 2-((1-hydroxy-2-(methylsulfonyl)-1,2-dihydrobenzo[d][1,2,3]diazaborinin-7-yl)oxy)acetate], the minimal inhibitory concentration (MIC) in experiment [1] (setting [4]) and in experiment [3] (setting [6]) was 0.5 to 2 µg/mL (≈ 0.808 to 3.23 µM) in each case. In experiment [2] (setting [5]), the EC50 was 56 nM.
